Results as given in the NIST ThermoML archive (doi:10.1016/j.fluid.2016.02.005).

Conditions: Liquid, Closed cell (Static) method

C=C(F)C(F)(F)F [2,3,3,3-tetrafluoro-1-propene]
Conditions | vapor or sublimation pressure [kPa]
254.1 K | 156.8
273.43 K | 318.2
293.24 K | 592.7
303.17 K | 783.9
318.08 K | 1153.4
332.97 K | 1641.5
348.4 K | 2288.8
